The values that follow come from patent US8993574B2, “Pyrrole antifungal agents” (F2G Ltd, priority 2008, dated 2015).

What all share (type): cell-based
The subject of assay [1] is Aspergillus terreus AT4. In words: MIC, YAG medium. The conditions noted are these: Aspergillus terreus, 24 h at 35° C, MIC banded into grades, read-out: MIC grade, A. terreus. The essentials:
(§1)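 MICs (mg/L) derive from the lowest compound concentration suppressing spore outgrowth by >70% against a drug-free well, by OD 485 nm. Conditions: YAG medium, 1−2×10^4 cfu/mL, 24 h, 35° C, two-fold dilutions from 50 mg/L.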

The subject of assay [2] is Aspergillus fumigatus AF293. In words: MIC, YAG medium. The conditions noted are these: Aspergillus fumigatus, 24 h at 35° C, MIC banded into grades, read-out: MIC grade, A. fumigatus. The essentials:
as §1

Assay [3] has as its system Aspergillus fumigatus AF210. As to the kind of experiment: MIC, YAG medium. Conditions: Aspergillus fumigatus, 24 h at 35° C, MIC banded into grades, read-out: MIC grade, A. fumigatus 210. The essentials: as §1
For assay [4], the system named is Aspergillus terreus AT49. In words: MIC, YAG medium. Conditions: Aspergillus terreus, 24 h at 35° C, MIC banded into grades, read-out: MIC grade, A. terreus 49. The essentials: as §1
For assay [5], the system named is Aspergillus niger. In words: MIC, YAG medium. The conditions noted are these: Aspergillus niger, 24 h at 35° C, MIC banded into grades, read-out: MIC grade, A. niger. The essentials:
as §1

Assay [6] concerns Aspergillus flavus. As to the kind of experiment: MIC, YAG medium. The conditions noted are these: Aspergillus flavus, 24 h, 24 h at 35° C, MIC banded into grades, read-out: MIC grade, A. flavus. The essentials: as §1
For assay [7], the system named is Aspergillus terreus AT4. In words: MIC, RPMI medium. Conditions: Aspergillus terreus, AT4, MIC banded into grades, read-out: MIC grade, A. terreus. The essentials: (§2)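 OD485-based endpoint after 24-48 h/35° C; MIC = lowest concentration, >80% inhibition relative to drug-free. RPMI/2% glucose/0.135 M MOPS pH 7.0; 1−2×10^4 cfu/mL; range 50-0.05 mg/L.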
In assay [8] the test system is Aspergillus fumigatus AF293. As to the kind of experiment: MIC, RPMI medium. The conditions noted are these: Aspergillus fumigatus, AF293, MIC banded into grades, read-out: MIC grade, A. fumigatus. The essentials: as §2
The subject of assay [9] is Aspergillus fumigatus AF210. In words: MIC, RPMI medium. The conditions noted are these: Aspergillus fumigatus, AF210, MIC banded into grades, read-out: MIC grade, A. fumigatus 210. The essentials:
as §2

The subject of assay [10] is Aspergillus terreus AT49. In words: MIC, RPMI medium. Conditions: Aspergillus terreus, AT49, MIC banded into grades, read-out: MIC grade, A. terreus 49. Summed up: as §2
Assay [11] relates to Aspergillus niger. In words: MIC, RPMI medium. Conditions: Aspergillus niger, MIC banded into grades, read-out: MIC grade, A. niger. The essentials: as §2
Assay [12] relates to Aspergillus flavus. As to the kind of experiment: MIC, RPMI medium. The conditions noted are these: Aspergillus flavus, MIC banded into grades, read-out: MIC grade, A. flavus. The essentials: as §2

SMILES strings stand for the structures. ≈ marks a conversion by molar mass, not a printed value. A value given as a limit tells only on which side of the number the result lay.

By MIC is commonly meant the lowest concentration found to suppress growth. `Cc1cc(C)nc(N2CCN(c3ccc(NC(=O)C(=O)c4c(-c5ccccc5)c(C)cn4C)cc3)CC2)c1` [Example 18, 2-(1,4-Dimethyl-3-phenyl-1H-pyrrol-2-yl)-N-{4-[4-(4,6-dimethyl-pyridin-2-yl)-piperazin-1-yl]-phenyl}-2-oxo-acetamide]: the minimal inhibitory concentration (MIC) in assay [1] was less than 1 µg/mL; in [2], less than 1 µg/mL; in assay [3], less than 1 µg/mL; in [4] it was less than 1 µg/mL; in assay [5], more than 10 µg/mL; in assay [6] it was less than 1 µg/mL. Also, the minimum inhibitory concentration (MIC) in assay [7] was less than 1 µg/mL; in assay [8], less than 1 µg/mL; in assay [9], less than 1 µg/mL; in assay [10], less than 1 µg/mL; in assay [11], more than 10 µg/mL; in assay [12] it was 1 to 10 µg/mL (≈ 1.97 to 19.7 µM).
In the case of `Cc1cc(-c2ccccc2)c(C(=O)C(=O)Nc2ccc(N3CCN(Cc4ccccc4)CC3)cc2)n1C` [Example 144, N-[4-(4-Benzyl-piperazin-1-yl)-phenyl]-2-(1,5-dimethyl-3-phenyl-1H-pyrrol-2-yl)-2-oxo-acetamide], the MIC in assay [1], in assay [2], in [3], in [4], in assay [5] and in [6] was less than 1 µg/mL each time. The MIC in assay [7], in assay [8], in assay [9], in assay [10], in assay [11] and in assay [12] was less than 1 µg/mL each time.
Take `Cc1cc(-c2ccccc2)c(C(=O)C(=O)Nc2ccc(N3CCN(CC(C)(C)C)CC3)cc2F)n1C` [Example 112, 2-(1,5-Dimethyl-3-phenyl-1H-pyrrol-2-yl)-N-{4-[4-(2,2-dimethyl-propyl)-piperazin-1-yl]-2-fluoro-phenyl}-2-oxo-acetamide]: the MIC in assay [1], in assay [2], in assay [3], in assay [4], in assay [5] and in assay [6] was less than 1 µg/mL in each case. Also, the MIC in [7], in assay [8], in [9], in [10], in assay [11] and in assay [12] was less than 1 µg/mL in each case.
Take `Cc1cc(C)nc(N2CCN(c3ccc(NC(=O)C(=O)c4cccn4-c4ccccc4)cc3)CC2)c1` [Example 2, N-{4-[4-(4,6-Dimethyl-pyridin-2-yl)-piperazin-1-yl]-phenyl}-2-oxo-2-(1-phenyl-1H-pyrrol-2-yl)-acetamide]: the MIC is less than 1 µg/mL in assay [1]; 1 to 10 µg/mL (≈ 2.09 to 20.9 µM) in assay [2]; 1 to 10 µg/mL (≈ 2.09 to 20.9 µM) in assay [3]; less than 1 µg/mL in assay [4]; more than 10 µg/mL in [5]; less than 1 µg/mL in assay [6]. For the same molecule, the minimal inhibitory concentration (MIC) in [7], in assay [8], in assay [9], in assay [10], in assay [11] and in assay [12] was more than 10 µg/mL in each case.
In the case of `Cc1cc(-c2ccccc2)c(C(=O)C(=O)Nc2cccc3ncccc23)n1C` [Example 32, 2-(1,5-Dimethyl-3-phenyl-1H-pyrrol-2-yl)-2-oxo-N-quinolin-5-yl-acetamide], the MIC in assay [1] was less than 1 µg/mL; in assay [2], 1 to 10 µg/mL (≈ 2.71 to 27.1 µM); in assay [3], 1 to 10 µg/mL (≈ 2.71 to 27.1 µM); in assay [4], less than 1 µg/mL; in assay [5], 1 to 10 µg/mL (≈ 2.71 to 27.1 µM); in assay [6], less than 1 µg/mL. In addition, the MIC was 1 to 10 µg/mL (≈ 2.71 to 27.1 µM) in assay [7]; more than 10 µg/mL in assay [8]; more than 10 µg/mL in [9]; 1 to 10 µg/mL (≈ 2.71 to 27.1 µM) in assay [10]; 1 to 10 µg/mL (≈ 2.71 to 27.1 µM) in [11]; 1 to 10 µg/mL (≈ 2.71 to 27.1 µM) in [12].
As for `CCCNC(=O)C(=O)c1cc(-c2ccccc2)cn1CCOC` [Example 121, 2-[1-(2-Methoxy-ethyl)-4-phenyl-1H-pyrrol-2-yl]-2-oxo-N-propyl-acetamide], the MIC is 1 to 10 µg/mL (≈ 3.18 to 31.8 µM) in [1]; more than 10 µg/mL in assay [2]; 1 to 10 µg/mL (≈ 3.18 to 31.8 µM) in assay [3]; 1 to 10 µg/mL (≈ 3.18 to 31.8 µM) in assay [4]; more than 10 µg/mL in assay [5]; more than 10 µg/mL in assay [6]. Further, the minimal inhibitory concentration (MIC) in assay [7], in [8], in assay [9], in assay [10], in [11] and in assay [12] was more than 10 µg/mL throughout.
Regarding `Cc1cc(C)nc(N2CCN(c3ccc(NC(=O)C(=O)c4c(-c5ccccc5)cc(C)n4CCOC(C)C)cc3)CC2)c1` [Example 97, N-{4-[4-(4,6-Dimethyl-pyridin-2-yl)-piperazin-1-yl]-phenyl}-2-[1-(2-isopropoxy-ethyl)-5-methyl-3-phenyl-1H-pyrrol-2-yl]-2-oxo-acetamide], the MIC in assay [1] was 1 to 10 µg/mL (≈ 1.72 to 17.2 µM); in assay [2], 1 to 10 µg/mL (≈ 1.72 to 17.2 µM); in assay [3] it was less than 1 µg/mL; in assay [4], 1 to 10 µg/mL (≈ 1.72 to 17.2 µM); in assay [5], 1 to 10 µg/mL (≈ 1.72 to 17.2 µM); in [6], 1 to 10 µg/mL (≈ 1.72 to 17.2 µM). The MIC in assay [7] was 1 to 10 µg/mL (≈ 1.72 to 17.2 µM); in assay [8], less than 1 µg/mL; in assay [9], 1 to 10 µg/mL (≈ 1.72 to 17.2 µM); in assay [10], 1 to 10 µg/mL (≈ 1.72 to 17.2 µM); in assay [11], 1 to 10 µg/mL (≈ 1.72 to 17.2 µM); in [12], 1 to 10 µg/mL (≈ 1.72 to 17.2 µM).
Turning to `Cc1cc(-c2ccccc2)c(C(=O)C(=O)Nc2cccc3ccccc23)n1C` [Example 16, 2-(1,5-Dimethyl-3-phenyl-1H-pyrrol-2-yl)-N-naphthalen-1-yl-2-oxo-acetamide], the MIC in assay [1], in [2], in assay [3], in assay [4], in assay [5] and in [6] was less than 1 µg/mL throughout. Also, the MIC in assay [7] is less than 1 µg/mL; in assay [8], less than 1 µg/mL; in [9] it was 1 to 10 µg/mL (≈ 2.71 to 27.1 µM); in assay [10] it was less than 1 µg/mL; in assay [11], less than 1 µg/mL; in assay [12] it was less than 1 µg/mL.
As to `COCCn1c(C)cc(-c2ccccc2)c1C(=O)C(=O)Nc1cccc2ccncc12` [Example 42, N-Isoquinolin-8-yl-2-[1-(2-methoxy-ethyl)-5-methyl-3-phenyl-1H-pyrrol-2-yl]-2-oxo-acetamide], the MIC was more than 10 µg/mL in assay [1]; 1 to 10 µg/mL (≈ 2.42 to 24.2 µM) in [2]; 1 to 10 µg/mL (≈ 2.42 to 24.2 µM) in assay [3]; more than 10 µg/mL in assay [4]; more than 10 µg/mL in assay [5]; more than 10 µg/mL in assay [6]. For the same molecule, the minimal inhibitory concentration (MIC) is more than 10 µg/mL in [7]; 1 to 10 µg/mL (≈ 2.42 to 24.2 µM) in assay [8]; more than 10 µg/mL in assay [9]; more than 10 µg/mL in assay [10]; more than 10 µg/mL in assay [11]; more than 10 µg/mL in assay [12].
For the molecule `CCCOCn1c(C)cc(-c2ccccc2)c1C(=O)C(=O)Nc1ccc(N2CCN(c3cc(C)cc(C)n3)CC2)cc1` [Example 139, N-{4-[4-(4,6-Dimethyl-pyridin-2-yl)-piperazin-1-yl]-phenyl}-2-(5-methyl-3-phenyl-1-propoxymethyl-1H-pyrrol-2-yl)-2-oxo-acetamide], the MIC was 1 to 10 µg/mL (≈ 1.77 to 17.7 µM) in assay [1]; less than 1 µg/mL in assay [2]; less than 1 µg/mL in assay [3]; less than 1 µg/mL in assay [4]; less than 1 µg/mL in [5]; 1 to 10 µg/mL (≈ 1.77 to 17.7 µM) in [6]. The MIC in assay [7] was 1 to 10 µg/mL (≈ 1.77 to 17.7 µM); in [8], 1 to 10 µg/mL (≈ 1.77 to 17.7 µM); in assay [9], 1 to 10 µg/mL (≈ 1.77 to 17.7 µM); in assay [10], 1 to 10 µg/mL (≈ 1.77 to 17.7 µM); in [11] it was 1 to 10 µg/mL (≈ 1.77 to 17.7 µM); in assay [12] it was more than 10 µg/mL.
Consider `COCCc1cc(-c2ccccc2)c(C(=O)C(=O)Nc2ccc(N3CCN(c4cc(C)cc(C)n4)CC3)cc2)n1C` [Example 129, N-{4-[4-(4,6-Dimethyl-pyridin-2-yl)-piperazin-1-yl]-phenyl}-2-[5-(2-methoxy-ethyl)-1-methyl-3-phenyl-1H-pyrrol-2-yl]-2-oxo-acetamide], for which the MIC in [1], in assay [2], in [3], in [4], in [5] and in assay [6] was less than 1 µg/mL each time. Also, the minimal inhibitory concentration (MIC) was 1 to 10 µg/mL (≈ 1.81 to 18.1 µM) in [7]; less than 1 µg/mL in assay [8]; 1 to 10 µg/mL (≈ 1.81 to 18.1 µM) in assay [9]; 1 to 10 µg/mL (≈ 1.81 to 18.1 µM) in assay [10]; 1 to 10 µg/mL (≈ 1.81 to 18.1 µM) in assay [11]; less than 1 µg/mL in assay [12].
